Source: ChEMBL document CHEMBL1155542, “Mapping the ATP-binding domain of DNA-dependent protein kinase (DNA-PK) with coumarin- and isocoumarin-derived inhibitors” (Bioorg Med Chem Lett, 2010)

Biological target: DNA-dependent protein kinase catalytic subunit (Homo sapiens, UniProt P78527)
Assay: Inhibition of DNA-dependent protein kinase

Sequence of DNA-dependent protein kinase catalytic subunit (P78527 whole entry): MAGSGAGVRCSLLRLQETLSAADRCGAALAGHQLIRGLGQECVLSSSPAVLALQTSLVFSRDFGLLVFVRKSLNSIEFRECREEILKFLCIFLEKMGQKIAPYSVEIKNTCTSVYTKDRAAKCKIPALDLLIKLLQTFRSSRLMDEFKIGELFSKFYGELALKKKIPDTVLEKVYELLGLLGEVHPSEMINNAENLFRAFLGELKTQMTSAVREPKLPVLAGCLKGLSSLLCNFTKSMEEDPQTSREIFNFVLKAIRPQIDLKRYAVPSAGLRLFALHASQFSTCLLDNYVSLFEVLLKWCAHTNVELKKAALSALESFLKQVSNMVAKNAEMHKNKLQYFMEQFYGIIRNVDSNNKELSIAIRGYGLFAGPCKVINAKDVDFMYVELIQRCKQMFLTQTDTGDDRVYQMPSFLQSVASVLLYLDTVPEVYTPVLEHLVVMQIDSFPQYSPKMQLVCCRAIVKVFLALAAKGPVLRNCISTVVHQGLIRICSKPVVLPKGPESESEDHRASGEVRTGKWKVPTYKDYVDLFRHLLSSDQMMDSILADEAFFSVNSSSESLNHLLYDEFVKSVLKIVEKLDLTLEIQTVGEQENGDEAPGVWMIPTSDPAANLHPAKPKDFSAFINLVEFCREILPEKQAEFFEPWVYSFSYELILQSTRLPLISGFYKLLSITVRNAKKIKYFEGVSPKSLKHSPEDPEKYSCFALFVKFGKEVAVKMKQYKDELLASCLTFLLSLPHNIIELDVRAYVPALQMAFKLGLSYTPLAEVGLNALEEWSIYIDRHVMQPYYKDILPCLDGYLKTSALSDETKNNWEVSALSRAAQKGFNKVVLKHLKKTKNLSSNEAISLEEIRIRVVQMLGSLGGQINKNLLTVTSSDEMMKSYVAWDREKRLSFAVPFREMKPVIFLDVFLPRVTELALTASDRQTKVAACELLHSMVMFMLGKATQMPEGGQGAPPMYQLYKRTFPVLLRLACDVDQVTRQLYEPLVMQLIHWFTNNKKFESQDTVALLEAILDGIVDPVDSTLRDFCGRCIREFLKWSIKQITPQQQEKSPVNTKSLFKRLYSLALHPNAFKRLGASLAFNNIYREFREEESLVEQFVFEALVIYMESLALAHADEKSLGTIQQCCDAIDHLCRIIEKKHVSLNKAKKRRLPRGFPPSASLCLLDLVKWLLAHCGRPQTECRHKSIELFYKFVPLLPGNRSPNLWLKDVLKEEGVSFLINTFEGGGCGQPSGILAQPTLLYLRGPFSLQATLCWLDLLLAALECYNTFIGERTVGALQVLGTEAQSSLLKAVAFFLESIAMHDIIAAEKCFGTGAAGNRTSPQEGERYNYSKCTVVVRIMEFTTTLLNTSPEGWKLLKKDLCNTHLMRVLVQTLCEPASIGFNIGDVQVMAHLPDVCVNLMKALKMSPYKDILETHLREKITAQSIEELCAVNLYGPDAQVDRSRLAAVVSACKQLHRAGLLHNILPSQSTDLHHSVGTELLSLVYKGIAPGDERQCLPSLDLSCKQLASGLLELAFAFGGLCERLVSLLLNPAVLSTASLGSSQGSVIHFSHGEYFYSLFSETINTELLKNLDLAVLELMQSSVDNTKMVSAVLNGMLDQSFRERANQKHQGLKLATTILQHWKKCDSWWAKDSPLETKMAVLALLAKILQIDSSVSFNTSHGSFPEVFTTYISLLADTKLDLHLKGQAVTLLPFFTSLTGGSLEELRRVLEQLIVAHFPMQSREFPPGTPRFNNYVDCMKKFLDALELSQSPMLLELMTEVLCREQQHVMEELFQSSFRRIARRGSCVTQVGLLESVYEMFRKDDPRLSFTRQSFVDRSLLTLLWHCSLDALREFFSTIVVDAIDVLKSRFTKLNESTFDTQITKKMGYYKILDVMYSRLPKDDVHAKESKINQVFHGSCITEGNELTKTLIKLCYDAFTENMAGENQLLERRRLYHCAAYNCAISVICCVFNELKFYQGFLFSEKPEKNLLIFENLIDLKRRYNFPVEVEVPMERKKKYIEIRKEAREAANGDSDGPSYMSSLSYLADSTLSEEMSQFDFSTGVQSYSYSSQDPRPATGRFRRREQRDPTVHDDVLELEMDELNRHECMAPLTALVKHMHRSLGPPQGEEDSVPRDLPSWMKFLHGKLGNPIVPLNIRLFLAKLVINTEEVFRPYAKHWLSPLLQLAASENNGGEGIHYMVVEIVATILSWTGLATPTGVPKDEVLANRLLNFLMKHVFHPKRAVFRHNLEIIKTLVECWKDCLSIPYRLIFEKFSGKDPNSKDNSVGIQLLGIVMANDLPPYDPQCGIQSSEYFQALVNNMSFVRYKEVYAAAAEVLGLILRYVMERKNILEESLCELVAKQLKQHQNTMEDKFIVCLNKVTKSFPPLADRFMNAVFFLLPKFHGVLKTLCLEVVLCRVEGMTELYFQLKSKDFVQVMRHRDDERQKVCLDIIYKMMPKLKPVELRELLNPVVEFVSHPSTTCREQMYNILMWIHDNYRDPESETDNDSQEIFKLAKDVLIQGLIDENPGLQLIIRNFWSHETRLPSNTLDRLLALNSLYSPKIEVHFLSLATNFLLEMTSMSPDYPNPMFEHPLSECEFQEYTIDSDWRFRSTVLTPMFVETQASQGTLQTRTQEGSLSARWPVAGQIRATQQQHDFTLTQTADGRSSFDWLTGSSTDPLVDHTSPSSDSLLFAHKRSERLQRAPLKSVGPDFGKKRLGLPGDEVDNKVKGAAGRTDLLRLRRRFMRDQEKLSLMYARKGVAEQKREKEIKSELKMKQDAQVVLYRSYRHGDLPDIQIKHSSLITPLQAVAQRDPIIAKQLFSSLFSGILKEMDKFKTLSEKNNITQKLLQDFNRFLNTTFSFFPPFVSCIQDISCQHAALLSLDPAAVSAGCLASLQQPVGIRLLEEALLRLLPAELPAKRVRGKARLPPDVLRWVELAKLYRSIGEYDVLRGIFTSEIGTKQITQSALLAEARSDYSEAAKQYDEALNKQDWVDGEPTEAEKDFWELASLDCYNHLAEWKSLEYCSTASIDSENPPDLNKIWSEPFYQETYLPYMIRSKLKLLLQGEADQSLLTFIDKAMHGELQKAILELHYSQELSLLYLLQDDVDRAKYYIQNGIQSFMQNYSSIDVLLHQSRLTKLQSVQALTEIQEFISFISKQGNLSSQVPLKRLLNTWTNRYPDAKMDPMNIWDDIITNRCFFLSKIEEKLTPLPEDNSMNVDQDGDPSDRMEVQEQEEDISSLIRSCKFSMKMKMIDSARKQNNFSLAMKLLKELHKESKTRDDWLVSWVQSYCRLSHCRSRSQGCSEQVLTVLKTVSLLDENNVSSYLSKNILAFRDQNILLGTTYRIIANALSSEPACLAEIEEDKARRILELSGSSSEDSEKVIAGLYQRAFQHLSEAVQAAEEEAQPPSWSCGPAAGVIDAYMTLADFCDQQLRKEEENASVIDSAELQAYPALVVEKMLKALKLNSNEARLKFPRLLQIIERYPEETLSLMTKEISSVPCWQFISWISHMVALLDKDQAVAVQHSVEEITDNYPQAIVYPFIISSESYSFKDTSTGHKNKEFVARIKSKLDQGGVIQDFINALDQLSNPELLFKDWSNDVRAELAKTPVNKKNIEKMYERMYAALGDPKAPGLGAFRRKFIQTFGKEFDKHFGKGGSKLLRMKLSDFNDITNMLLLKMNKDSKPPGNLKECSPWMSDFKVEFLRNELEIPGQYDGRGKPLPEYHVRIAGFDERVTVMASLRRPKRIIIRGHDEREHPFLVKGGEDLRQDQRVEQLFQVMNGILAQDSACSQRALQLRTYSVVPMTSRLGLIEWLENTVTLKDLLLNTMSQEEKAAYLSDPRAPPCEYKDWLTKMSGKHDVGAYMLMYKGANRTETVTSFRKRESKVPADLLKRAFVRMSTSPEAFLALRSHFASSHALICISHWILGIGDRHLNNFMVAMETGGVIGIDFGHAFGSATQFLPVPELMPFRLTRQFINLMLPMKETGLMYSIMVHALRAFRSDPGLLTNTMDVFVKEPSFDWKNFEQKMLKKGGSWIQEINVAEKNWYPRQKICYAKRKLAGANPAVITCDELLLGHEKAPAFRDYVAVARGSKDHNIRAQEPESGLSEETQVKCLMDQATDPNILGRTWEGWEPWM

SMILES	IC50
O=c1cc(N2CCOCC2)c2cc(-c3cc4ccccc4s3)ccc2o1	> 10000 nM
O=c1cc(N2CCOCC2)c2cc(-c3cccc4c3sc3ccccc34)ccc2o1	> 10000 nM
O=c1cc(N2CCOCC2)c2cc(-c3cccc4c3oc3ccccc34)ccc2o1	> 10000 nM
O=c1cc(N2CCOCC2)c2ccc(-c3ccccc3)cc2o1	1700 nM
O=c1cc(N2CCOCC2)c2cc(-c3ccccc3)ccc2o1	1800 nM
O=c1oc(N2CCOCC2)cc2ccccc12	> 10000 nM
COc1cccc2c(=O)oc(N3CCOCC3)cc12	3200 nM
O=c1oc(N2CCOCC2)cc2c(-c3ccccc3)cccc12	2600 nM
O=c1cc(N2CCOCC2)c2ccc(-c3cc4ccccc4s3)cc2o1	> 10000 nM
O=c1cc(N2CCOCC2)c2ccc(-c3cccc4c3sc3ccccc34)cc2o1	2100 nM
O=c1cc(N2CCOCC2)c2ccc(-c3cccc4c3oc3ccccc34)cc2o1	2100 nM
O=c1cc(N2CCOCC2)c2ccc(-c3cccc(-c4ccccc4)c3)cc2o1	> 10000 nM
COc1ccc2oc(=O)cc(N3CCOCC3)c2c1	1700 nM
COc1ccc2c(N3CCOCC3)cc(=O)oc2c1	5400 nM
O=c1cc(N2CCOCC2)oc2ccccc12	> 10000 nM
COc1cccc2c(=O)cc(N3CCOCC3)oc12	1800 nM

These reach a lower IC50. Values come first.

IC50	SMILES
1600 nM	O=c1cc(N2CCOCC2)c2cc(-c3cccc(-c4ccccc4)c3)ccc2o1
1200 nM	O=c1cc(N2CCOCC2)c2cc(-c3cccs3)ccc2o1
680 nM	O=c1oc(N2CCOCC2)cc2c(-c3cccc(-c4ccccc4)c3)cccc12
600 nM	O=c1cc(N2CCOCC2)c2ccc(-c3cccs3)cc2o1
340 nM	O=c1oc(N2CCOCC2)cc2c(-c3cccc4c3sc3ccccc34)cccc12
330 nM	O=c1oc(N2CCOCC2)cc2c(-c3cccc4c3oc3ccccc34)cccc12
30 nM	O=c1cc(N2CCOCC2)oc2c(-c3cccc4c3sc3ccccc34)cccc12
5 nM	CCN1CCN(CC(=O)Nc2ccc(-c3cccc4c(=O)cc(N5CCOCC5)oc34)c3sc4ccccc4c23)CC1
